Reference: ChEMBL document CHEMBL3885861, “Open TG-GATES”

Species on record: Rattus norvegicus
Test: Open TG-GATES - Regimen: Single
Format: toxicity, organism-based, Sprague-Dawley
Set-up: regimen Single, gender Male, age 6 weeks
Conditions: in vivo, po, route gavage; for APTT / Bas / Eos / Fbg / Hb / Ht / Lym / MCH / MCHC / MCV / Mono / Neu / PT / Plat / RBC / Ret / WBC: tissue Blood; for KIDNEY_L / KIDNEY_R / KIDNEY_TOTAL: tissue Kidney; for LIVER: tissue Liver
[1] = 0 mg/kg, 24 h, tissue Plasma, dose level Control
[2] = 300 mg/kg, 3 h, tissue Plasma, dose level Low
[3] = 300 mg/kg, 6 h, tissue Plasma, dose level Low

`O=C(O)c1ccccc1Nc1ccccc1` [FENAMIC ACID] showed an RALB [1] of 2.7 g/dL, a TBIL [1] of 0.034 mg/dL and a TC [1] of 77.6 mg/dL. It also gave a TG [1] of 82.6 mg/dL, a TP [1] of 5.6 g/dL and a gamma-GTP [1] of 1 IU/L. It also gave a TERMINAL_BW (300 mg/kg, 3 h, dose level Low) of 209.1 g, an APTT (300 mg/kg, 3 h, dose level Low) of 16.8 s and a Bas (300 mg/kg, 3 h, dose level Low) of 0.8%. For the same compound, the Eos (300 mg/kg, 3 h, dose level Low) was 0.8%, the Fbg (300 mg/kg, 3 h, dose level Low) was 249.8 mg/dL and the Hb (300 mg/kg, 3 h, dose level Low) was 13.2 g/dL. It also gave a Ht (300 mg/kg, 3 h, dose level Low) of 40%, a Lym (300 mg/kg, 3 h, dose level Low) of 79.8% and an MCH (300 mg/kg, 3 h, dose level Low) of 20.5 pg. For the same compound, the MCHC (300 mg/kg, 3 h, dose level Low) was 33%, the MCV (300 mg/kg, 3 h, dose level Low) was 62.3 fL and the Mono (300 mg/kg, 3 h, dose level Low) was 2.2%. It also gave a Neu (300 mg/kg, 3 h, dose level Low) of 16.2%, a PT (300 mg/kg, 3 h, dose level Low) of 14.3 s and a Plat (300 mg/kg, 3 h, dose level Low) of 113.6 x10_4/uL. It also gave an RBC (300 mg/kg, 3 h, dose level Low) of 642.2 x10_4/ul, a Ret (300 mg/kg, 3 h, dose level Low) of 8.8% and a WBC (300 mg/kg, 3 h, dose level Low) of 95.7 x10_2/uL. It also gave a KIDNEY_L (300 mg/kg, 3 h, dose level Low) of 1 g, a KIDNEY_R (300 mg/kg, 3 h, dose level Low) of 0.9 g and a KIDNEY_TOTAL (300 mg/kg, 3 h, dose level Low) of 1.9 g. The LIVER (300 mg/kg, 3 h, dose level Low) was 8.2 g, the A/G [2] was 0.9 and the ALP [2] was 1661.4 IU/L. It also gave an ALT [2] of 38.2 IU/L, an AST [2] of 73.4 IU/L and a BUN [2] of 12.4 mg/dL. It also gave a CRE [2] of 0.2 mg/dL, a Ca [2] of 11.1 mg/dL and a Cl [2] of 107.2 meq/L. It also gave a GLC [2] of 187.4 mg/dL, an IP [2] of 9.6 mg/dL and a K [2] of 4.4 meq/L. For the same compound, the LDH [2] was 78.4 IU/L, the Na [2] was 144.4 meq/L and the PL [2] was 124.6 mg/dL. It also gave an RALB [2] of 2.5 g/dL, a TC [2] of 67.4 mg/dL and a TG [2] of 93.4 mg/dL. For the same compound, the TP [2] was 5.4 g/dL, the gamma-GTP [2] was 1 IU/L and the TERMINAL_BW (300 mg/kg, 6 h, dose level Low) was 201.5 g. The APTT (300 mg/kg, 6 h, dose level Low) was 16.7 s, the Bas (300 mg/kg, 6 h, dose level Low) was 0.6% and the Eos (300 mg/kg, 6 h, dose level Low) was 0.8%. The Fbg (300 mg/kg, 6 h, dose level Low) was 248.8 mg/dL, the Hb (300 mg/kg, 6 h, dose level Low) was 13.5 g/dL and the Ht (300 mg/kg, 6 h, dose level Low) was 40.6%. For the same compound, the Lym (300 mg/kg, 6 h, dose level Low) was 74.6%, the MCH (300 mg/kg, 6 h, dose level Low) was 20.9 pg and the MCHC (300 mg/kg, 6 h, dose level Low) was 33.3%. For the same compound, the MCV (300 mg/kg, 6 h, dose level Low) was 62.9 fL, the Mono (300 mg/kg, 6 h, dose level Low) was 2.4% and the Neu (300 mg/kg, 6 h, dose level Low) was 21.4%. It also gave a PT (300 mg/kg, 6 h, dose level Low) of 14.5 s, a Plat (300 mg/kg, 6 h, dose level Low) of 114.4 x10_4/uL and an RBC (300 mg/kg, 6 h, dose level Low) of 645.8 x10_4/ul. For the same compound, the Ret (300 mg/kg, 6 h, dose level Low) was 8%, the WBC (300 mg/kg, 6 h, dose level Low) was 96.1 x10_2/uL and the KIDNEY_L (300 mg/kg, 6 h, dose level Low) was 0.9 g. It also gave a KIDNEY_R (300 mg/kg, 6 h, dose level Low) of 0.9 g, a KIDNEY_TOTAL (300 mg/kg, 6 h, dose level Low) of 1.8 g and an LIVER (300 mg/kg, 6 h, dose level Low) of 7.3 g. The A/G [3] was 0.9, the ALP [3] was 1342.6 IU/L and the ALT [3] was 38.4 IU/L. For the same compound, the AST [3] was 73 IU/L, the BUN [3] was 8.8 mg/dL and the CRE [3] was 0.2 mg/dL. The Ca [3] was 10.7 mg/dL, the Cl [3] was 107.4 meq/L and the GLC [3] was 152.8 mg/dL. For the same compound, the IP [3] was 9.9 mg/dL, the K [3] was 3.9 meq/L and the LDH [3] was 66.6 IU/L. For the same compound, the Na [3] was 144.2 meq/L and the PL [3] was 116.8 mg/dL.
